Experimental data: patent publication US9623021B2, “Nuclear receptor binding agents” (GTX, Inc., priority 2007, dated 2017)
“Also recorded” adds a separate entry of the source.

How the values were obtained:
[1] = system: ARPE-19 cells; experiment: Fluorescent detection of intracellular ROS in ARPE-19 cells (tBH oxidative stress); details: 150 μM tBH, FIG. 20B
[2] = target: ERα ligand binding domain (Homo sapiens (Human), UniProt P03372); experiment: Competitive [3H]-estradiol radioligand binding, ERα (Example 21)
Experimental: (§1) ER binding affinity was determined via one of the following methods:
(§2) Briefly, the incubation mixture was filtered through a high affinity protein binding filter, and washed several times to remove any unbound radioactivity. The filter plate was air dried and sealed on the bottom.
(§3) Following incubation, plates were harvested onto GF/B filters and radioactivity was measured with a TopCount NXT (PerkinElmer). Nonspecific binding was subtracted from total binding to yield specific binding.

[3] = target: ERβ ligand binding domain (Homo sapiens (Human), UniProt Q92731); experiment: Competitive [3H]-estradiol radioligand binding, ERβ (Example 21); details: ratio between the binding constants of ER-α and ER-β
Experimental: as §1, §2, §3

[4] = system: THP-1 macrophage cell adhesion to bEND-3 endothelial cells; experiment: Macrophage adhesion assay (LPS induced THP-1 adhesion to bEND-3 endothelial cells); format: cell-based; details: FIG. 13
Experimental: To determine the anti-inflammatory effects of ER-β NRBAs in vitro, a macrophage adhesion assay was performed. Macrophages adhere to endothelial cells due to elevated levels of pro-inflammatory cytokines. This principle was used in this assay to determine the effect of one of the ER-β NRBAs on bacterial lipopolysaccharide (LPS) induced THP-1 macrophage cell adhesion to bEND-3 endothelial cells.

[5] = system: high fat diet fed C57BL6 mice; experiment: High fat diet induced obesity model, prevention studies (studies 1 and 2)
Experimental: Study A: C57BL6 male mice of 4 weeks of age were divided into different groups and were fed with a normal or high fat diet (Harlan, Ind.).
For the treatment study (study 3), the animals were maintained on the irrespective diets for 6 weeks and then treated daily as indicated for an additional 18 weeks. Biweekly body weights and food consumption were measured. The animals were sacrificed at the end of each study and blood and tissues were collected for RNA isolation, histology and protein estimation.
Cholesterol and leptin concentrations were measured in serum using ELISA-based methods.
Histology was performed on cryosections and stained with oil 0 red.
Oral glucose tolerance tests (OGTT) were performed on 16-h fasted mice. Mice were given 150 mg glucose by oral gavage through a gastric tube.
Six week old C57BL/6 mice were randomized, based on body weight, into three study groups as shown in the Study Parameters Table below.
The mice were treated for 12 weeks. Twice weekly, the body weight and feed consumption were measured.
A glucose tolerance test was also performed at the completion of the study by administering 150 mg glucose orally to the mice and measuring blood glucose levels at 0, 15, 30 and 60 minutes post glucose administration.
At sacrifice, the mice organ weights were measured and collected for histology, gene expression and protein expressions. Blood was collected for serum marker determination (cholesterol, glucose, leptin).
Dual energy X-ray absorptiometry (DEXA) was performed to measure the body composition in Study 1.
An MRI scan was performed at the beginning of the study, after 6 weeks and at the completion of the study.

[6] = system: Ishikawa endometrial cells; experiment: Ishikawa growth assay (alkaline phosphatase); format: cell-based
Experimental: Ishikawa cells were plated at 15,000 cells/well in 24 well plates in DME:F12 (1:1)+5% csFBS w/o phenol red. The cells were maintained in this medium at 37° C. for 3 days. Medium was changed immediately prior to drug treatment for an additional 72 hrs. After 72 hrs, the cells were fixed with formalin and the amount of alkaline phosphatase (ALP) measured by para-nitrophenyl phosphate method.
This effect is one potential concern in the development of ER-α SERMs.

[7] = system: PPAR-α; experiment: PPAR-α transactivation (PPRE-LUC) in HEK-293 cells co-transfected with ER-β; format: cell-based; details: FIG. 12A right panel
Experimental: (§4) FIG. 12 depict the effect of ER-β ligand on PPAR-γ function through ligand binding domain (LBD). (A). HEK-293 cells were transfected with 0.25 μg PPRE-LUC, 5 ng CMV-renilla LUC and the indicated receptors (PPAR-γ and ER-β for the left panel and PPAR-α and ER-β for the right panel). The cells were treated 24 hrs after transfection with the indicated ligands and harvested 48 hrs after transfection and firefly luciferase activity was measured and normalized to renilla luciferase. (B). H475 in ER-β LBD is important for its function. H475 in ER-β LBD was mutated to alanine (A) using a site directed mutagenesis kit. Transactivation assay was performed as described in panel A in HEK-293 cells with a titration of ER-β ligands in wild type or ER-β H475A. (C). […] The cells were treated 24 hrs after transfection with the indicated ligands and harvested 48 hrs after transfection and firefly luciferase activity was measured and normalized to renilla luciferase. […] The cells were treated 24 hrs after transfection with the indicated ligands and harvested 48 hrs after transfection and firefly luciferase activity was measured and normalized to renilla luciferase. […] The cells were treated 24 hrs after transfection with the indicated ligands and harvested 48 hrs after transfection and firefly luciferase activity was measured and normalized to renilla luciferase. […]

[8] = system: PPAR-γ; experiment: PPAR-γ transactivation (PPRE-LUC) in HEK-293 cells co-transfected with ER-β; format: cell-based; details: FIG. 12A left panel
Experimental: as §4

[9] = target: T1, ER-α (Rattus norvegicus (Rat), UniProt P06211); experiment: Transient transfection and reporter gene assay, ER-α, HEK-293 cells (Example 22A); format: cell-based; details: ERE-LUC
Experimental: Human estrogen receptors (ER-α and ER-β) were cloned from prostate cDNA into a pCR3.1 plasmid vector backbone. PGC-1 was cloned into mammalian two hybrid vector pACT. ER-β H475 was mutated to alanine using site-directed mutagenesis. Sequencing was performed to determine the absence of any non specific mutations. SHP promoter (−572 to +10) (26) was cloned into pGL3 basic LUC reporter vector and human FXR was cloned into pCR3.1. HEK-293 cells were plated at 100,000 cells per well of a 24 well plate in […] (DMEM)+5% charcoal-stripped fetal bovine serum (csFBS). The cells were transfected using Lipofectamine (Invitrogen, Carlsbad, Calif.) with 0.25 μg ERE-LUC, 0.02 μg CMV-LUC (renilla luciferase) and 12.5 ng of rat ER-α or 25 ng rat ER-β. […] Luciferase assays were performed 48 hrs after transfection.
To determine if the selectivity in ER binding also translated into ER-β-selective activity, transient transactivation assays were performed in HEK-293 cells transfected with plasmids encoding ER-α or ER-β and ERE-LUC. The cells were treated with varying concentrations of the ligands and their EC50 values were determined.

[10] = system: SHP promoter; experiment: SHP promoter-luciferase in HEK-293 cells transfected with FXR and ER-β; format: cell-based; details: FXR and ER-β plasmids, FIG. 12E right panel
Experimental: FIG. 12 depict the effect of ER-β ligand on PPAR-γ function through ligand binding domain (LBD). (A). HEK-293 cells were transfected with 0.25 μg PPRE-LUC, 5 ng CMV-renilla LUC and the indicated receptors (PPAR-γ and ER-β for the left panel and PPAR-α and ER-β for the right panel). The cells were treated 24 hrs after transfection with the indicated ligands and harvested 48 hrs after transfection and firefly luciferase activity was measured and normalized to renilla luciferase. (B). H475 in ER-β LBD is important for its function. H475 in ER-β LBD was mutated to alanine (A) using a site directed mutagenesis kit. Transactivation assay was performed as described in panel A in HEK-293 cells with a titration of ER-β ligands in wild type or ER-β H475A. (C). […] HEK-293 cells were transfected with 0.25 μg PPRE-LUC, 5 ng CMV-renilla LUC and 50 ng of the indicated receptors (PPAR-γ or PPAR-γ and wild type ER-β or PPAR-γ and ER-β H475A). The cells were treated 24 hrs after transfection with the indicated ligands and harvested 48 hrs after transfection and firefly luciferase activity was measured and normalized to renilla luciferase. (D). […] HepG2 cells were transfected with 0.25 μg PPRE-LUC, 5 ng CMV-renilla LUC, 0.5 μg PGC-1 or vector backbone and 100 ng of the indicated receptors (PPAR-γ or PPAR-γ and wild type ER-β or PPAR-γ and ER-β H475A for top panels and PPAR-α or PPAR-α and ER-β for bottom panel). The cells were treated 24 hrs after transfection with the indicated ligands and harvested 48 hrs after transfection and firefly luciferase activity was measured and normalized to renilla luciferase. (E). SHP-1 is an ER-β specific target gene. HEK-293 cells were transfected with 0.25 μg SHP-LUC, 5 ng CMV-renilla LUC and 50 ng of the indicated receptors (FXR and ER-α for the left panel and FXR and ER-β for the right panel). The cells were treated 24 hrs after transfection with the indicated ligands and harvested 48 hrs after transfection and firefly luciferase activity was measured and normalized to renilla luciferase. […]

[11] = target: T1, ER-α; format: cell-based; details: 100 nM NRBA compared to 1 nM estradiol
Experimental: COS or 293 cells were plated in DME without phenol red+10% cs FBS at 90,000 cells per well in 24 well plates, and were transfected with 0.25 μg of the vector “ERE-LUC”, where a firefly luciferase gene was driven by two estrogen responsive elements and 0.02 μg of the control CMV-LUC, Renilla where a luciferase gene was driven by a CMV promoter. […] All the receptors were cloned from rat tissue into the PCR3.1 vector backbone. Twenty four hours post transfection, cells were treated with compounds of this invention, estrogen, DHT, and other NRBAs or combinations thereof. Cells were harvested 48 hrs after transfection, and assayed for firefly and Renilla luciferase activity.

[12] = system: SHP promoter; experiment: SHP promoter-luciferase in HEK-293 cells transfected with FXR and ER-α; format: cell-based; details: FIG. 12E left panel
Experimental: as §4

[13] = Brown Adipose Tissue, vs high fat diet vehicle, >2-fold, p<0.01
[14] = Liver, vs high fat diet vehicle, >2-fold, p<0.01
[15] = White Adipose Tissue, vs high fat diet vehicle, >2-fold, p<0.01
[16] = high fat diet, 30 mg/kg/day s.c., 12 weeks
[17] = high fat diet, 30 mg/kg/day s.c., 12 weeks, FIG. 7
[18] = high fat diet, 30 mg/kg/day s.c., 12 weeks, study 1
[19] = high fat diet, 30 mg/kg/day s.c., Study 2

ERα ligand binding domain, sequence (P03372 whole entry, looked up, species assumed, the tested form may be a part): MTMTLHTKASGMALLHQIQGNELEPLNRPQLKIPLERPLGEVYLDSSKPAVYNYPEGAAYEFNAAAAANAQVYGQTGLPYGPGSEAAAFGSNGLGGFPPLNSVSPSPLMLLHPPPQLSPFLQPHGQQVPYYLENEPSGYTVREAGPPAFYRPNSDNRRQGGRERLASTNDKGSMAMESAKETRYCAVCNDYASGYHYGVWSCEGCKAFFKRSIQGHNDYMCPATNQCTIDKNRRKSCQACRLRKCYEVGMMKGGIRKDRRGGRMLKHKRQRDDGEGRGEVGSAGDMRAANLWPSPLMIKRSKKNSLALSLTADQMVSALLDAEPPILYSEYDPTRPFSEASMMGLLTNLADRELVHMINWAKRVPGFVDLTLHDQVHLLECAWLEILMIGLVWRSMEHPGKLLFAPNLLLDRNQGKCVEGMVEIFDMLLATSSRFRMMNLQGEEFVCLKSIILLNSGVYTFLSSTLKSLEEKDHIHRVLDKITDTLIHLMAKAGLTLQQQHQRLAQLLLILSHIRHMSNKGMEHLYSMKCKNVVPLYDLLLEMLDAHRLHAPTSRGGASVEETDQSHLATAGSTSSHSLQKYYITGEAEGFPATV
ERβ ligand binding domain, sequence (Q92731 264-498, species assumed): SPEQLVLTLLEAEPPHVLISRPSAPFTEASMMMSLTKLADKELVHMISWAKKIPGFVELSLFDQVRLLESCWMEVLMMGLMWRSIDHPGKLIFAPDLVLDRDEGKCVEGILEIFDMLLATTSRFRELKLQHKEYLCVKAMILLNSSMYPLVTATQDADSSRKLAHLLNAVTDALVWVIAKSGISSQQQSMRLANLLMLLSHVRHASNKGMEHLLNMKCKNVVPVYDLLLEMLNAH

O=c1c2c(O)cc(O)cc2c(Cl)cn1-c1ccc(O)cc1 [Compound 12y, 4-chloro-6,8-dihydroxy-2-(4-hydroxyphenyl)isoquinolin-1(2H)-one]
prevention of ROS formation / oxidative damage [1]: protected ARPE-19 cells from oxidative damage
Ki [2]: 36 nM
Ki Ratio (ER-α/ER-β) [3]: 11
adhesion of 3H labeled THP-1 cells to bEND-3 cells [4]: significantly inhibited the adhesion

N#Cc1cn(-c2ccc(O)cc2)c(=O)c2c(O)cc(O)cc12 [Compound 14m, 6,8-dihydroxy-2-(4-hydroxyphenyl)-1-oxo-1,2-dihydroisoquinoline-4-carbonitrile]
prevention of body weight increase caused by the high fat diet ([5]; 30 mg/kg/day s.c., 12 weeks, Study 2): more than 50%
high fat diet increase in expression of genes that promote lipogenesis (LPL, FASN, SREBP-1, PLTP, Dhcr24) ([5]; BAT and WAT): reversed
Ddit3 (DNA damage inducible transcript III) gene expression [5, 13]: Decrease
Dhcr24 (dehydrocholesterol reductase) gene expression [5, 13]: Decreased
ER-β (Estrogen receptor β) gene expression [5, 13]: Increased
GPx-3 (glutathione peroxidase) gene expression [5, 13]: Increase
LPL (lipoprotein lipase) gene expression [5, 13]: Decrease
PLTP (phospholipid transfer protein) gene expression [5, 13]: Decrease
UCP-1 (uncoupled protein-1) gene expression [5, 13]: Increased
CIDEA (Cell death inducing DNA fragmentation factor) gene expression [5, 14]: Decrease
GPx-3 (glutathione peroxidase) gene expression [5, 14]: Increase
Ddit3 (DNA damage inducible transcript III) gene expression [5, 15]: Decrease
FASN (fatty acid synthase) gene expression [5, 15]: Decrease
LPL (lipoprotein lipase) gene expression [5, 15]: Decrease
SREBP1 (Sterol regulatory element binding protein 1) gene expression [5, 15]: Decrease
bone mineral content (BMC), DEXA [5, 16]: prevented the loss in BMC
serum cholesterol increase by high fat diet [5, 16]: significantly reversed
serum leptin increase by high fat diet [5, 16]: significantly reversed
white adipose tissue (WAT) weight ([5]; high fat diet, 30 mg/kg/day s.c., 12 weeks, FIG. 6B): significantly reduced
gastrocnemius muscle weight [5, 17]: increased gastrocnemius muscle weight
white adipose tissue (WAT) weight [5, 17]: prevented the increase in the WAT weight; also recorded: comparably decreased WAT weight
body fat (DEXA) [5, 18]: suppressing fat mass formation
reduction in body weight compared to high fat diet and vehicle [5, 18]: greater than 85%
weight gained more than normal diet-fed controls [5, 18]: 5%
serum macrophage inflammatory protein-1β (MIP-1β) increase by high fat diet ([5]; high fat diet, 30 mg/kg/day s.c., FIG. 6F): completely reversed
accumulation of fat in the liver (oil red staining) ([5]; high fat diet, 30 mg/kg/day s.c., FIG. 8): attenuated the accumulation of lipid droplets in the liver; also recorded: completely prevented the accumulation of fat in the liver
fat mass (MRI) [5, 19]: reduce fat mass
lean mass (MRI) [5, 19]: increase muscle mass; also recorded: increased the lean mass
prevention of the increase in body fat (MRI) [5, 19]: more than 50%
total caloric intake (feed consumption) ([5]; high fat diet, 30 mg/kg/day s.c., study 1): did not affect total caloric intake
blood glucose levels, glucose tolerance test ([5]; high fat diet, 30 mg/kg/day s.c., 150 mg glucose orally): not statistically different from the normal diet controls
testes weights ([5]; high fat diet, 12 weeks, FIG. 9A): not altered
serum testosterone levels ([5]; high fat diet, 12 weeks, FIG. 9B): did not affect; also recorded: not altered
serum follicle stimulating hormone (FSH) ([5]; high fat diet, 12 weeks, FIG. 9C): did not affect; also recorded: not altered
Ishikawa cell proliferation ([6]; FIG. 3C): weakly induce
concentration at which proliferation of Ishikawa cells was induced ([6]; highest concentration tested, ALP assay, 72 hrs): 1 µM
WY14643 induced PPAR-α transactivation [7]: did not affect
troglitazone-induced PPAR-γ activity [8]: partially inhibited
function at ER-α in transactivation [9]: agonists
SHP activity [10]: neither of the ligands activated SHP
Estradiol activity at 100 nM, ER-α [11]: 49%

CCCc1c(-c2ccc(O)cc2)nn(-c2ccc(O)cc2)c1-c1ccc(O)cc1 [PPT, 1,3,5-tris(4-hydroxyphenyl)-4-propyl-1H-pyrazole]
SHP activity [12]: increased SHP activity
